# Assay results as given in US12077503B2, “Substituted cyclic amides and their use as herbicides” (FMC CORPORATION, priority 2015, dated 2024).
# Experiments:
# Test in all cases: Test E preemergence
# Format in all cases: in vivo
# Settings in all cases: scale 0 to 100
# [1] = system: Panicum, fall (fall Panicum, Panicum dichotomiflorum)
# Summary of the method: (§1)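 Compound in non-phytotoxic solvent with surfactant is applied preemergence to silt loam soil after sowing, or postemergence to plants 2 to 18 cm tall in peat-based medium. Plants grow in a greenhouse for 14 to 21 d. Each species is then compared with controls and scored visually, 0 (no effect) to 100 (complete control).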
# [2] = system: barnyardgrass (Echinochloa crus-galli)
# Summary of the method: as §1
# corn (Zea mays) = system: corn (Zea mays)
# Summary of the method: as §1
# [3] = system: crabgrass, Brazil (Brazilian crabgrass, Digitaria horizontalis)
# Summary of the method: as §1
# [4] = system: crabgrass, large (large crabgrass, Digitaria sangumnalis)
# Summary of the method: as §1
# [5] = system: field bindweed (Convolvulus arvensis)
# Summary of the method: as §1
# [6] = system: foxtail, giant (giant foxtail, Setaria faberii)
# Summary of the method: as §1
# [7] = system: foxtail, green (green foxtail, Setaria viridis)
# Summary of the method: as §1
# [8] = system: goosegrass (Eleusine indica)
# Summary of the method: as §1
# [9] = system: horseweed (Conyza canadensis)
# Summary of the method: as §1
# [10] = system: johnsongrass (Sorghum halepense)
# Summary of the method: as §1
# [11] = system: lambsquarters (Chenopodium album)
# Summary of the method: as §1
# [12] = system: nightshade (eastern black nightshade, Solanum ptycanthum)
# Summary of the method: as §1
# [13] = system: nutsedge, yellow (yellow nutsedge, Cyperus esculentus)
# Summary of the method: as §1
# [14] = system: pigweed, palmer (palmer pigweed, Amaranthus palmeri)
# Summary of the method: as §1
# [15] = system: ragweed (common ragweed, Ambrosia elatior)
# Summary of the method: as §1
# [16] = system: sandbur (southern sandbur, Cenchrus echinatus)
# Summary of the method: as §1
# soybean (Glycine max) = system: soybean (Glycine max)
# Summary of the method: as §1
# [17] = system: surinam grass (Brachiaria decumbens)
# Summary of the method: as §1
# [18] = system: velvetleaf (Abutilon theophrasti)
# Summary of the method: as §1
# [19] = system: waterhemp (common waterhemp, Amaranthus rudis)
# Summary of the method: as §1
smiles,measurement,setting,value
CN1CC(c2cccc(C(F)(F)F)c2)C(C(=O)Nc2cccc(F)c2F)C1=O (stereo not shown) [Compound 636],"Plant response rating: Panicum, Fall",[1]; 31 g ai/ha,90
same,"Plant response rating: Panicum, Fall",[1]; 62 g ai/ha,90
same,"Plant response rating: Panicum, Fall",[1]; 125 g ai/ha,100
same,"Plant response rating: Panicum, Fall",[1]; 250 g ai/ha,90
same,Plant response rating: Barnyardgrass,[2]; 31 g ai/ha,95
same,Plant response rating: Barnyardgrass,[2]; 62 g ai/ha,95
same,Plant response rating: Barnyardgrass,[2]; 125 g ai/ha,98
same,Plant response rating: Barnyardgrass,[2]; 250 g ai/ha,98
same,Plant response rating: Corn,corn (Zea mays); 31 g ai/ha,65
same,Plant response rating: Corn,corn (Zea mays); 62 g ai/ha,70
same,Plant response rating: Corn,corn (Zea mays); 125 g ai/ha,80
same,Plant response rating: Corn,corn (Zea mays); 250 g ai/ha,80
same,"Plant response rating: Crabgrass, Brazil",[3]; 31 g ai/ha,95
same,"Plant response rating: Crabgrass, Brazil",[3]; 62 g ai/ha,95
same,"Plant response rating: Crabgrass, Brazil",[3]; 125 g ai/ha,98
same,"Plant response rating: Crabgrass, Brazil",[3]; 250 g ai/ha,98
same,"Plant response rating: Crabgrass, Large",[4]; 31 g ai/ha,98
same,"Plant response rating: Crabgrass, Large",[4]; 62 g ai/ha,98
same,"Plant response rating: Crabgrass, Large",[4]; 125 g ai/ha,98
same,"Plant response rating: Crabgrass, Large",[4]; 250 g ai/ha,98
same,Plant response rating: Field Bindweed,[5]; 31 g ai/ha,0
same,Plant response rating: Field Bindweed,[5]; 62 g ai/ha,75
same,Plant response rating: Field Bindweed,[5]; 125 g ai/ha,80
same,Plant response rating: Field Bindweed,[5]; 250 g ai/ha,70
same,"Plant response rating: Foxtail, Giant",[6]; 31 g ai/ha,95
same,"Plant response rating: Foxtail, Giant",[6]; 62 g ai/ha,95
same,"Plant response rating: Foxtail, Giant",[6]; 125 g ai/ha,95
same,"Plant response rating: Foxtail, Giant",[6]; 250 g ai/ha,95
same,"Plant response rating: Foxtail, Green",[7]; 31 g ai/ha,95
same,"Plant response rating: Foxtail, Green",[7]; 62 g ai/ha,95
same,"Plant response rating: Foxtail, Green",[7]; 125 g ai/ha,95
same,"Plant response rating: Foxtail, Green",[7]; 250 g ai/ha,98
same,Plant response rating: Goosegrass,[8]; 31 g ai/ha,50
same,Plant response rating: Goosegrass,[8]; 62 g ai/ha,80
same,Plant response rating: Goosegrass,[8]; 125 g ai/ha,90
same,Plant response rating: Goosegrass,[8]; 250 g ai/ha,95
same,Plant response rating: Horseweed,[9]; 31 g ai/ha,0
same,Plant response rating: Horseweed,[9]; 62 g ai/ha,90
same,Plant response rating: Horseweed,[9]; 125 g ai/ha,95
same,Plant response rating: Horseweed,[9]; 250 g ai/ha,95
same,Plant response rating: Johnsongrass,[10]; 31 g ai/ha,90
same,Plant response rating: Johnsongrass,[10]; 62 g ai/ha,95
same,Plant response rating: Johnsongrass,[10]; 125 g ai/ha,95
same,Plant response rating: Johnsongrass,[10]; 250 g ai/ha,98
same,Plant response rating: Lambsquarters,[11]; 31 g ai/ha,90
same,Plant response rating: Lambsquarters,[11]; 62 g ai/ha,90
same,Plant response rating: Lambsquarters,[11]; 125 g ai/ha,90
same,Plant response rating: Lambsquarters,[11]; 250 g ai/ha,90
same,Plant response rating: Nightshade,[12]; 31 g ai/ha,0
same,Plant response rating: Nightshade,[12]; 62 g ai/ha,0
same,Plant response rating: Nightshade,[12]; 125 g ai/ha,40
same,Plant response rating: Nightshade,[12]; 250 g ai/ha,50
same,"Plant response rating: Nutsedge, Yellow",[13]; 31 g ai/ha,0
same,"Plant response rating: Nutsedge, Yellow",[13]; 62 g ai/ha,0
same,"Plant response rating: Nutsedge, Yellow",[13]; 125 g ai/ha,0
same,"Plant response rating: Nutsedge, Yellow",[13]; 250 g ai/ha,60
same,"Plant response rating: Pigweed, Palmer",[14]; 31 g ai/ha,0
same,"Plant response rating: Pigweed, Palmer",[14]; 62 g ai/ha,10
same,"Plant response rating: Pigweed, Palmer",[14]; 125 g ai/ha,80
same,"Plant response rating: Pigweed, Palmer",[14]; 250 g ai/ha,90
same,Plant response rating: Ragweed,[15]; 31 g ai/ha,0
same,Plant response rating: Ragweed,[15]; 250 g ai/ha,0
same,Plant response rating: Sandbur,[16]; 31 g ai/ha,90
same,Plant response rating: Sandbur,[16]; 62 g ai/ha,90
same,Plant response rating: Sandbur,[16]; 125 g ai/ha,90
same,Plant response rating: Sandbur,[16]; 250 g ai/ha,95
same,Plant response rating: Soybean,soybean (Glycine max); 31 g ai/ha,0
same,Plant response rating: Soybean,soybean (Glycine max); 62 g ai/ha,0
same,Plant response rating: Soybean,soybean (Glycine max); 125 g ai/ha,0
same,Plant response rating: Soybean,soybean (Glycine max); 250 g ai/ha,0
same,Plant response rating: Surinam Grass,[17]; 31 g ai/ha,40
same,Plant response rating: Surinam Grass,[17]; 62 g ai/ha,90
same,Plant response rating: Surinam Grass,[17]; 125 g ai/ha,95
same,Plant response rating: Surinam Grass,[17]; 250 g ai/ha,95
same,Plant response rating: Velvetleaf,[18]; 31 g ai/ha,20
same,Plant response rating: Velvetleaf,[18]; 62 g ai/ha,35
same,Plant response rating: Velvetleaf,[18]; 125 g ai/ha,60
same,Plant response rating: Velvetleaf,[18]; 250 g ai/ha,40
same,Plant response rating: Waterhemp,[19]; 31 g ai/ha,25
same,Plant response rating: Waterhemp,[19]; 62 g ai/ha,80
same,Plant response rating: Waterhemp,[19]; 125 g ai/ha,70
same,Plant response rating: Waterhemp,[19]; 250 g ai/ha,80
